# Literature values as cited in publication PMC9074375 (The journal of physical chemistry. B, 2022).
# Test system: malignant cells
sequence,measurement,setting,value
FLGVLALLGYLAVRPFLPKKKQQK [NAF-1^44-67],permeation of the plasma membrane,malignant versus normal cells,selectively permeates the plasma membrane of malignant but not normal cells
same,killing of cancer cells,"peptide alone, without therapeutic cargo","kill cancer cells by itself, without carrying additional therapeutic cargo and without damaging normal cells"
